Data from patent publication US11980618B2, “Nitric oxide releasing phosphodiesterase type 5 inhibitor” (NICOX S.A., priority 2018, dated 2024).

Tests used:
[1] = test system: laser-induced ocular hypertensive non-human primates; assay: Intraocular pressure (IOP) lowering effect in laser-induced ocular hypertensive non-human primates (topical dosing, pneumatonometer); type: in vivo
[2] = test system: ocular normotensive New Zealand white rabbits; assay: Intraocular pressure (IOP) lowering effects in ocular normotensive New Zealand white rabbits (topical dosing, pneumatonometer); type: in vivo
[3] = Example 26, 2.0% w/v, 30 μL topical

## O=C(O)CCCCCO[N+](=O)[O-] [(IIIa)-OH, 6-(nitrooxy)hexanoic acid]
[1]; in vivo
  IOP change (mmHg) E480: −2.7±1.5 mmHg
  IOP change (mmHg) Emax: −5.2±1.0 mmHg

## CCCOc1ccc(S(=O)(=O)N2CCN(CCOC(=O)CCOC[C@@H](CO[N+](=O)[O-])O[N+](=O)[O-])CC2)cc1-c1nc2c(CCC)cn(CC)c2c(=O)[nH]1.O=C(O)CC(O)(CC(=O)O)C(=O)O [Compound (1)-(2S)-citrate salt, (S)-2-(4-(3-(5-ethyl-4-oxo-7-propyl-4,5-dihydro-3H-pyrrolo[3,2-d]pyrimidin-2-yl)-4-propoxyphenylsulfonyl)piperazin-1-yl)ethyl 3-[2,3-bis(nitrooxy)propoxy]propanoate citrate]
[2]; rabbit, in vivo
  IOP change (mmHg) E180 min: −1.8 ± 0.8 mmHg
  IOP change (mmHg) Emax: −3.8 ± 0.5 (60 min) mmHg
  IOP change at Emax: −3.8 ± 0.5 (60 min)
[1]; in vivo
  IOP change (mmHg) 30 min: −4.0 ± 0.9 mmHg
  IOP change (mmHg) 60 min: −5.3 ± 1.0 mmHg
  IOP change (mmHg) 180 min: −4.9 ± 1.5 mmHg
  IOP change (mmHg) 300 min: −4.4 ± 0.9 mmHg
  IOP change (mmHg) 1440 min: −2.6 ± 1.3 mmHg
  IOP change (mmHg) E300 min: −5.3 ± 1.9 mmHg
  IOP change (mmHg) Emax: −7.0 ± 0.9 (60 min) mmHg

## COc1ccc(CNc2nc(N3CCC[C@H]3COC(=O)CCCCCO[N+](=O)[O-])ncc2C(=O)NCc2ncccn2)cc1Cl.O=C(O)CC(O)(CC(=O)O)C(=O)O [Compound (9)-citrate salt, (S)-(1-(4-(3-chloro-4-methoxybenzylamino)-5-(pyrimidin-2-ylmethylcarbamoyl)pyrimidin-2-yl)pyrrolidin-2-yl)methyl 6-(nitrooxy)hexanoate 2-hydroxypropane-1,2,3-tricarboxylate]
[1]; in vivo
  IOP change (mmHg) E480: −6.0±2.1 mmHg
  IOP change (mmHg) Emax: −6.0±2.1 mmHg

## COc1ccc(CNc2nc(N3CCC[C@H]3COC(=O)CCCCCO[N+](=O)[O-])ncc2C(=O)NCc2ncccn2)cc1Cl.O=C(O)/C=C/C(=O)O [Compound (9)-fumarate salt, (S)-(1-(4-(3-chloro-4-methoxybenzylamino)-5-(pyrimidin-2-ylmethylcarbamoyl)pyrimidin-2-yl)pyrrolidin-2-yl)methyl 6-(nitrooxy)hexanoate Fumarate]
[1]; Example 26, Table 5, 2.0% w/v, 30 μL topical, 30 min post-dosing, mean±SEM n=8 eye
  IOP change (mmHg) 30 min: −4.0 ± 1.3 mmHg
[1]; Example 26, Table 5, 2.0% w/v, 30 μL topical, 60 min post-dosing, mean±SEM n=8 eye
  IOP change (mmHg) 60 min: −3.5 ± 1.6 mmHg
[1]; Example 26, Table 5, 2.0% w/v, 30 μL topical, 300 min post-dosing, mean±SEM n=8 eye
  IOP change (mmHg) 300 min: −4.1 ± 2.7 mmHg
[1]; Example 26, Table 5, 2.0% w/v, 30 μL topical, 1440 min (24 hours) post-dosing, mean±SEM n=8 eye, Fumarate
  IOP change (mmHg) 1440 min: −2.8±2.0 mmHg
[1]; [3]
  maximum intraocular pressure-lowering efficacy, Emax: −4.1±2.7 mmHg
  time of Emax: 300 min

## COc1ccc(CNc2nc(N3CCC[C@H]3COC(=O)CCOC[C@@H](CO[N+](=O)[O-])O[N+](=O)[O-])ncc2C(=O)NCc2ncccn2)cc1Cl.O=C(O)CC(O)(CC(=O)O)C(=O)O [Compound (12)-(2S)-citrate salt, ((S)-1-(4-(3-chloro-4-methoxybenzylamino)-5-(pyrimidin-2-ylmethylcarbamoyl)pyrimidin-2-yl)pyrrolidin-2-yl)methyl 3-((S)-2,3-bis(nitrooxy)propoxy)propanoate 2-hydroxypropane-1,2,3-tricarboxylate]
[2]; rabbit, in vivo
  IOP change (mmHg) 30 min: −5.6 ± 0.9 mmHg
  IOP change (mmHg) 60 min: −3.9 ± 1.0 mmHg
  IOP change (mmHg) 120 min: −2.4 ± 0.8 mmHg

## CCCOc1ccc(S(=O)(=O)N2CCN(CCO)CC2)cc1-c1nc2c(CCC)cn(CC)c2c(=O)[nH]1 [Mirodenafil, reference compound]
[2]; Example 24, Table 3, 300 min post-dosing, topical 50 μL, 0.5 μmoles/eye (each compound), mean±SEM n=6-9
  IOP change (mmHg) E300 min: −1.46 ± 0.79 mmHg
[2]; Example 24, Table 3, topical 50 μL, 0.5 μmoles/eye (each compound)
  time post-dosing of Emax: 120 min
[2]; Example 24, Table 3, topical 50 μL, 0.5 μmoles/eye (each compound), change versus basal and vehicle, mean±SEM n=6-9
  IOP change (mmHg) Emax: −3.68 ± 0.89 mmHg
[1]; Example 22, Table 1, 300 min post-dose, topical 30 μL, 0.48 μmoles/eye (1.17 μmoles/eye for (IIIg)-OH), mean±SEM n=13
  IOP change (mmHg) E300 min: −3.4 ± 2.3 mmHg
[1]; Example 22, Table 1, topical 30 μL, 0.48 μmoles/eye (1.17 μmoles/eye for (IIIg)-OH)
  time post-dosing of Emax: 180 min
[1]; Example 22, Table 1, topical 30 μL, 0.48 μmoles/eye (1.17 μmoles/eye for (IIIg)-OH), change versus basal and vehicle, mean±SEM n=13
  IOP change (mmHg) Emax: −5.0 ± 2.1 mmHg
[1]; Example 27, Table 6, 0.31 μmoles/eye (each compound), 30 μL topical, 30 min post-dose, mean±SEM n=13
  IOP change (mmHg) 30 min: −2.2 ± 1.4 mmHg
[1]; Example 27, Table 6, 0.31 μmoles/eye (each compound), 30 μL topical, 60 min post-dose, mean±SEM n=13
  IOP change (mmHg) 60 min: −4.1 ± 1.5 mmHg
[1]; Example 27, Table 6, 0.31 μmoles/eye (each compound), 30 μL topical, 180 min post-dose, mean±SEM n=13
  IOP change (mmHg) 180 min: −3.8 ± 1.0 mmHg
[1]; Example 27, Table 6, 0.31 μmoles/eye (each compound), 30 μL topical, 300 min post-dose, mean±SEM n=13
  IOP change (mmHg) 300 min: −2.2 ± 1.1 mmHg
[1]; Example 27, Table 6, 0.31 μmoles/eye (each compound), 30 μL topical, 1440 min post-dose, mean±SEM n=13
  IOP change (mmHg) 1440 min: −1.0 ± 1.1 mmHg

## CCCOc1ccc(S(=O)(=O)N2CCN(CCO[N+](=O)[O-])CC2)cc1-c1nc2c(CCC)cn(CC)c2c(=O)[nH]1 [PDE5 nitrate ester, 2-(4-(3-(5-ethyl-4-oxo-7-propyl-4,5-dihydro-3H-pyrrolo[3,2-d]pyrimidin-2-yl)-4-propoxyphenylsulfonyl)piperazin-1-yl)ethyl Nitrate, reference compound]
[2]; Example 25, Table 4, 180 min post-dosing, topical, 0.5 μmoles/eye, mean±SEM n=6-9
  IOP change (mmHg) E180 min: 0.3 ± 0.8 mmHg
[2]; Example 25, Table 4, topical, 0.5 μmoles/eye
  time post dosing of Emax: 60 min
[2]; Example 25, Table 4, topical, 0.5 μmoles/eye, change versus basal and vehicle, mean±SEM n=6-9
  IOP change (mmHg) Emax: −2.6 ± 0.5 mmHg
